Measurements reported in PubChem BioAssay (NCI).
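Grown in 96-well plates, cells were treated for 48 hours with each compound at five concentrations. Insufficient inhibition: endpoint recorded as highest concentration tested. TGI denotes the concentration required for complete inhibition of growth.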

How the values were obtained:
Experiment in all cases: DTP human tumour cell line panel, 48 h
[1] = system: SNB-19 CNS
[2] = system: HL-60(TB) leukemia
[3] = system: A498 renal
[4] = system: SF-295 CNS
[5] = system: UACC-62 melanoma
[6] = system: IGROV1 ovarian
[7] = system: TK-10 renal
[8] = system: UO-31 renal
[9] = system: UACC-257 melanoma
[10] = system: COLO 205 colon
[11] = system: KM12 colon
[12] = system: HCT-116 colon
[13] = system: RXF 393 renal
[14] = system: A549 NSCLC
[15] = system: OVCAR-4 ovarian
[16] = system: RPMI-8226 leukemia
[17] = system: M14 melanoma
[18] = system: HCT-15 colon
[19] = system: SK-MEL-2 melanoma
[20] = system: NCI-H226 lung
[21] = system: LOX IMVI melanoma
[22] = system: OVCAR-8 ovarian
[23] = system: SK-MEL-28 melanoma
[24] = system: NCI-H23 lung
[25] = system: SR leukemia
[26] = system: SF-539 CNS
[27] = system: DU-145 prostate
[28] = system: NCI/ADR-RES ovarian
[29] = system: SW-620 colon
[30] = system: MDA-MB-435
[31] = system: EKVX NSCLC
[32] = system: MDA-N
[33] = system: SN12C renal
[34] = system: U251 CNS
[35] = system: K-562 leukemia
[36] = system: HS 578T breast
[37] = system: NCI-H460 lung
[38] = system: MCF7 breast
[39] = system: HOP-92 NSCLC
[40] = system: PC-3 prostate
[41] = system: CAKI-1 renal
[42] = system: HOP-62 NSCLC
[43] = system: MOLT-4 leukemia
[44] = system: CCRF-CEM leukemia
[45] = system: NCI-H522 lung
[46] = system: T-47D breast
[47] = system: MDA-MB-231 breast
[48] = system: SF-268 CNS
[49] = system: OVCAR-5 ovarian
[50] = system: MALME-3M melanoma
[51] = system: SNB-75 CNS
[52] = system: SK-OV-3 ovarian
[53] = system: ACHN renal
[54] = system: HCC-2998 colon
[55] = system: HT29 colon
[56] = system: BT-549 breast
[57] = system: SK-MEL-5 melanoma
[58] = system: OVCAR-3 ovarian
[59] = system: 786-0 renal

Measured: TGI

CCOP(=O)(OCC)C(Nc1cccc(F)c1)c1ccc(N(C)C)cc1 (centres undefined)
not listed: [59]
> 100 µM: all other assays above

O=C(/C=C/c1ccccc1)OCC1=C[C@@H](O)[C@@H]2C=CO[C@@H](OC3OC(CO)C(O)C(O)C3O)[C@H]12 (some centres undefined)
not listed: [2] | [35] | [37]
> 100 µM: all other assays above
